Data as given in PubChem BioAssay (NCI).
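Cells were grown in 96-well plates and exposed to each compound for 48 hours at five concentrations; endpoints were interpolated linearly between bracketing concentrations, or set to the highest concentration if not reached. GI50: concentration for 50% inhibition of growth. Definition used: TGI = concentration required for complete inhibition of growth.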

Key:
Experiment in all cases: DTP human tumour cell line panel, 48 h; in the data active = GI50 below about 0.43 µM; inactive = the rest
786-0 renal = system: 786-0 renal
A498 renal = system: A498 renal
A549 NSCLC = system: A549 NSCLC
ACHN renal = system: ACHN renal
CAKI-1 renal = system: CAKI-1 renal
CCRF-CEM leukemia = system: CCRF-CEM leukemia
COLO 205 colon = system: COLO 205 colon
DLD-1 colon = system: DLD-1 colon
DMS 114 small cell lung = system: DMS 114 small cell lung
DMS 273 small cell lung = system: DMS 273 small cell lung
DU-145 prostate = system: DU-145 prostate
EKVX NSCLC = system: EKVX NSCLC
HCC-2998 colon = system: HCC-2998 colon
HCT-116 colon = system: HCT-116 colon
HCT-15 colon = system: HCT-15 colon
HL-60(TB) leukemia = system: HL-60(TB) leukemia
HOP-18 NSCLC = system: HOP-18 NSCLC
HOP-62 NSCLC = system: HOP-62 NSCLC
HOP-92 NSCLC = system: HOP-92 NSCLC
HT29 colon = system: HT29 colon
IGROV1 ovarian = system: IGROV1 ovarian
K-562 leukemia = system: K-562 leukemia
KM12 colon = system: KM12 colon
KM20L2 colon = system: KM20L2 colon
LOX IMVI melanoma = system: LOX IMVI melanoma
LXFL 529 NSCLC = system: LXFL 529 NSCLC
M14 melanoma = system: M14 melanoma
M19-MEL melanoma = system: M19-MEL melanoma
MALME-3M melanoma = system: MALME-3M melanoma
MCF7 breast = system: MCF7 breast
MOLT-4 leukemia = system: MOLT-4 leukemia
NCI-H226 lung = system: NCI-H226 lung
NCI-H23 lung = system: NCI-H23 lung
NCI-H460 lung = system: NCI-H460 lung
NCI-H522 lung = system: NCI-H522 lung
OVCAR-3 ovarian = system: OVCAR-3 ovarian
OVCAR-4 ovarian = system: OVCAR-4 ovarian
OVCAR-5 ovarian = system: OVCAR-5 ovarian
OVCAR-8 ovarian = system: OVCAR-8 ovarian
RPMI-8226 leukemia = system: RPMI-8226 leukemia
RXF 393 renal = system: RXF 393 renal
RXF-631 renal = system: RXF-631 renal
SF-268 CNS = system: SF-268 CNS
SF-295 CNS = system: SF-295 CNS
SF-539 CNS = system: SF-539 CNS
SK-MEL-2 melanoma = system: SK-MEL-2 melanoma
SK-MEL-28 melanoma = system: SK-MEL-28 melanoma
SK-MEL-5 melanoma = system: SK-MEL-5 melanoma
SK-OV-3 ovarian = system: SK-OV-3 ovarian
SN12C renal = system: SN12C renal
SNB-19 CNS = system: SNB-19 CNS
SNB-75 CNS = system: SNB-75 CNS
SNB-78 CNS = system: SNB-78 CNS
SR leukemia = system: SR leukemia
SW-620 colon = system: SW-620 colon
TK-10 renal = system: TK-10 renal
U251 CNS = system: U251 CNS
UACC-257 melanoma = system: UACC-257 melanoma
UACC-62 melanoma = system: UACC-62 melanoma
UO-31 renal = system: UO-31 renal
XF 498 CNS = system: XF 498 CNS

O=C1C2C3C=CC(C2C(=O)N1CN1CCSCC1)C1C2C(=O)N(CN4CCSCC4)C(=O)C2C31 (centres undefined)
inactive: GI50 (A549 NSCLC) 77.1 µM | GI50 (CCRF-CEM leukemia) 35.1 µM | GI50 (DU-145 prostate) 78.4 µM | GI50 (MCF7 breast) 69.1 µM | GI50 (MOLT-4 leukemia) 54.2 µM | GI50 (NCI-H460 lung) 40 µM | GI50 (NCI-H522 lung) 82.3 µM | GI50 (RPMI-8226 leukemia) 32.2 µM | GI50 (SNB-75 CNS) 38.6 µM | GI50 (SW-620 colon) 50.5 µM
> 93 µM: TGI (SNB-75 CNS)
61.7 µM: TGI (RPMI-8226 leukemia)
> 91.6 µM: TGI (SF-268 CNS)
> 59.7 µM: TGI (HCT-15 colon)
> 100 µM: TGI (A498 renal) | TGI (A549 NSCLC) | TGI (ACHN renal) | TGI (CAKI-1 renal) | TGI (CCRF-CEM leukemia) | TGI (EKVX NSCLC) | TGI (HCC-2998 colon) | TGI (HOP-62 NSCLC) | TGI (HOP-92 NSCLC) | TGI (HT29 colon) | TGI (IGROV1 ovarian) | TGI (K-562 leukemia) | TGI (KM12 colon) | TGI (KM20L2 colon) | TGI (LXFL 529 NSCLC) | TGI (M14 melanoma) | TGI (M19-MEL melanoma) | TGI (MALME-3M melanoma) | TGI (MOLT-4 leukemia) | TGI (NCI-H226 lung) | TGI (NCI-H23 lung) | TGI (NCI-H522 lung) | TGI (OVCAR-3 ovarian) | TGI (OVCAR-4 ovarian) | TGI (OVCAR-5 ovarian) | TGI (OVCAR-8 ovarian) | TGI (RXF 393 renal) | TGI (RXF-631 renal) | TGI (SF-295 CNS) | TGI (SF-539 CNS) | TGI (SK-MEL-2 melanoma) | TGI (SK-MEL-28 melanoma) | TGI (SK-MEL-5 melanoma) | TGI (SK-OV-3 ovarian) | TGI (SN12C renal) | TGI (SNB-19 CNS) | TGI (SNB-78 CNS) | TGI (SR leukemia) | TGI (TK-10 renal) | TGI (U251 CNS) | TGI (UACC-257 melanoma) | TGI (UACC-62 melanoma) | TGI (UO-31 renal) | TGI (XF 498 CNS)
91.5 µM: TGI (HOP-18 NSCLC)
73 µM: TGI (HL-60(TB) leukemia)
> 61.4 µM: TGI (DMS 273 small cell lung)
97.8 µM: TGI (COLO 205 colon)
> 79.2 µM: TGI (786-0 renal)
> 56.1 µM: TGI (DMS 114 small cell lung)
> 55.9 µM: TGI (HCT-116 colon)
> 68.1 µM: TGI (SW-620 colon)
> 80.5 µM: TGI (LOX IMVI melanoma)
> 57.3 µM: TGI (NCI-H460 lung)
> 79.3 µM: TGI (DLD-1 colon)
